Experimental data as given in patent US20230390356A1, “HAIR GROWTH AGENT” (ADJUVANT HOLDINGS CO., LTD., priority 2020, published 2023).

Experiments:
[1] = system: skin samples derived from dorsal body hair skin transplanted in Balb/c nu/nu mice; assay: Evaluation of hair growth activity: drug applied on skin samples from mouse dorsal body hair skin grafted onto Balb/c nu/nu mice; type: in vivo
Method: C57BL/6N mice (male) and Balb/c nu/nu mice (female) were purchased from Japan SLC, Inc.(Japan) and bred, and were thereafter made available for the following testing. Note that the testing and breeding of animals complied with pertinent laws, regulations, ordinances, and guidelines, and was performed with the approval of the Experimental Ethics Review Board of the Institute of Physical and Chemical Research.
The following reagents were respectively prepared. • Placebo: 60% aqueous ethanol solution • Working Example 1: 0.05% solution of palmitoyl dipeptide-5 diaminobutyloyl hydroxythreonine
To collect dorsal body hair skin in the form of anagen stage VI skin 12 to 14 days following depilation. C57BL/6N mice of age 7 to 8 weeks were depilated at locations where dorsal body hair skin was intended to be collected, and were bred for 12 to 14 days. The depilated C57BL/6N mice were thereafter euthanized by cervical dislocation, following which a suitable amount of dorsal body hair skin was collected from the locations at which dorsal body hair skin was intended to be collected.
The collected skin was immersed in DMEM culture medium (hereinafter “DMEM 10”) which contained 10 mM HEPES, 10% fetal bovine serum, and 1% penicillin/streptomycin solution. The collected dorsal body hair skin was grasped with bent-nose curved tweezers and was treated by immersion for 10 seconds in a sterilizing solution. Sterilization treatment was performed by carrying out treatment with 7% povidone iodine solution two times, treatment with PBS (−) three times, and treatment with DMEM 10 two times, in this order, with fresh solutions respectively being used each time. Following sterilization treatment, these were immersed in clean DMEM 10.
Following sterilization treatment, the dorsal body hair skin was cut into pieces and formed into blocks. The transparent connective tissue which adhered to the cutaneous muscle layer of the skin was excised therefrom using curved scissors, and hair groups were cut into rectangular strips in parallel fashion with respect to the direction of the wave of the hair. At this time, these were cut into blocks such that there were 6 rows of hair follicles along the long axis, adjustment having been carried out so that there were 5 rows of hair follicles along the short axis.
The skin samples derived from dorsal body hair skin that were prepared in accordance with the foregoing were grafted onto Balb/c nu/nu mice of age 4 to 6 weeks.
More specifically, mice were anesthetized in the usual way using isoflurane gas. The dorsal area of the mice was then disinfected using 7% povidone iodine solution, following which the mice were made to assume a naturally recumbent posture. In addition, a Mani ophthalmic knife (Mani, Inc.; Japan) was used to pierce the skin at the dorsal area of the mice, the grafts which were formed extending from the epidermal layer of the skin to the subdermal layer. The skin samples derived from dorsal body hair skin were inserted into the grafts formed thereat in such fashion as to cause the hair groups to be directed toward the body surface side of the grafts. Skin sample transplanted depth was adjusted so as to cause the top portion of the hair group to be in a state such that it was exposed at the top portion of the graft. To protect the grafts, Nurseban (registered trademark) (Sunplanet Co., Ltd.; Japan) and surgical tape (3M Japan Limited; Japan) were then used as protective tape to cover the grafts at which the skin samples derived from dorsal body hair skin had been transplanted. The protective tape was removed 5 to 7 days following transplantation, and survival of the transplanted skin samples derived from dorsal body hair skin was determined by visual inspection or digital microscopy (Keyence Corporation: Japan), after which follow-up observation was carried out.
For the first hair cycle, 60% aqueous ethanol solution was applied thereto as placebo. […]

[2] = system: hair shafts (zigzag hairs) of skin samples transplanted in Balb/c nu/nu mice; assay: Measurement of increase in hair diameter on hair shafts from Exemplary Test 1; type: in vivo
Method: Measurement of increase in hair diameter was carried out using hair shafts that had completed the second cycle at the foregoing Exemplary Test 1. Of the hair shafts that were collected, three zigzag hairs were used for measurement of increase in hair diameter. Three locations were selected in regions where diameter was large in the central portions thereof using a square […] on a side. For each of the selected regions, five different locations were further selected, and hair shaft diameter of the zigzag hairs thereat was measured to evaluate the degree to which increase in hair diameter had occurred.
Here, ** at FIG. 2 and TABLE 2 indicates p<0.01, i.e., that the results are significant.

[3] = system: human dermal papilla cells; assay: Dermal papilla cell growth promotion (Cell Count Reagent SF absorbance); type: cell-based; settings: 10.268375 to 328.588 μM
Method: Human dermal papilla cells (Catalog No. CA602t05a: derived from person: Toy obo Co., Ltd. (Japan)) were purchased, testing and evaluation being carried out with maintenance and culture of cells being performed as described in the protocol.
As drugs for testing, drug solutions consisting of culture medium for human dermal papilla cells containing palmitoyl dipeptide-5 diaminobutyloyl hydroxythreonine in the following respective concentrations (final concentrations) were prepared, and these were used. • Working Example 1: 10.268375 μM • Working Example 2: 20.53675 μM • Working Example 3: 41.0735 μM • Working Example 4: 82.147 μM • Working Example 5: 164.294 μM • Working Example 6: 328.588 μM
A 96-well plate was seeded with human dermal papilla cells so as to obtain 1×10^3 thereof per well. […] After this had been added thereto, absorbance (measurement wavelength 450 nm; reference wavelength 620 nm) of the culture supernatant was measured. Based on these values, the cell growth rates at the respective wells were calculated, at which time the cell growth rate of the control group at which nothing had been added was taken to be 100%.

[4] = system: FGF-7 gene; assay: FGF-7 gene expression in human dermal papilla cells by real-time PCR; type: cell-based; settings: 24 hours, FIG. 4
Method: Testing and evaluation were carried out with maintenance and culture of human dermal papilla cells being performed in the same manner as at Exemplary Test 3, above.
As drugs for testing, drug solutions of the following respective concentrations (final concentrations) were prepared and used. • Comparative Example 1: 100 μM adenosine • Working Example 1: 1 μM palmitoyl dipeptide-5 diaminobutyloyl hydroxythreonine • Working Example 2: 10 μM palmitoyl dipeptide-5 diaminobutyloyl hydroxythreonine • Working Example 3: 300 μM palmitoyl dipeptide-5 diaminobutyloyl hydroxythreonine
A 24-well plate was seeded with human dermal papilla cells so as to obtain 6×10^3 thereof per well. […]
Following culture, total RNA was extracted from the respective wells and was recovered, and this was reverse-transcribed into cDNA. […] The GAPDH gene was used as an internal standard, the amount of FGF-7 gene expression being calculated relative to the negative control group.
A FastGene RNA Basic Kit (Catalog No. FG-80250; Nippon Genetics Co., Ltd. (Japan)) was used to recover total RNA from cells. […] Concentration of the recovered RNA was measured using a NanoDrop Lite (Catalog No. ND-LITE; Thermo Fisher Scientific K.K.), and this was stored at −80° C. until the following cDNA creation procedure. […]

[5] = 0.05% solution applied topically to transplanted skin samples, second hair cycle
[6] = 0.05% solution, second hair cycle vs placebo applied in first hair cycle

palmitoyl dipeptide-5 diaminobutyloyl hydroxythreonine
Hair shaft elongation rate [1, 5]: 0.40 ± 0.08 mm/day
Maximum hair shaft length [1, 5]: 5.1 ± 0.3 mm
Hair shaft elongation rate, percent change relative to reference data [1, 6]: 110.45%
Maximum hair shaft length, percent change relative to reference data [1, 6]: 103.27%
Hair growth activity (in words) ([1]; solution containing 0.05%): exhibit hair growth activity
Hair shaft elongation rate as compared with reference data (in words) ([1]; solution containing 0.05%): significant improvement
Maximum hair shaft length as compared with reference data (in words) ([1]; solution containing 0.05%): significant improvement
Hair diameter as compared with 60% aqueous ethanol control (in words) ([2]; 0.05% solution): clear increase in hair diameter
Hair shaft diameter, percent increase ([2]; second hair cycle vs placebo applied in first hair cycle): 137%
Hair shaft diameter ([2]; zigzag hairs after second hair cycle, 0.05% solution, p<0.01): 22.0 ± 1.6 ** μm
Cell growth rate as compared with control group at which nothing had been added (in words) ([3]; 24, 48 or 72 hours, FIG. 3): increase in cell growth rate
Concentration dependence of cell growth rate (in words) ([3]; within concentration domain tested): increased in concentration-dependent fashion
Amount of expression of FGF-7 gene as compared with control group (in words) ([4]; 1 μM and 10 μM): increase in the amount of expression of the FGF-7 gene
Amount of expression of FGF-7 gene compared with 100 μM adenosine (in words) ([4]; increased amount added): greater than that which was produced as a result of action of adenosine
